Among the data in patent US20260234124A1, “Substituted Pyrazolyl-Pyridinyl Compounds as Ligand Directed Degraders of IRAK3” (Celgene Corporation, priority 2022, published 2026) are Dmax and DC50 values, retold here.

As a reminder, the Dmax is the greatest extent of degradation seen. Low readings indicate shallow degradation, high ones deep degradation.

In test [1] the target is T1, IRAK3 (Homo sapiens, UniProt Q9Y616).
T1 sequence (Q9Y616 1-596): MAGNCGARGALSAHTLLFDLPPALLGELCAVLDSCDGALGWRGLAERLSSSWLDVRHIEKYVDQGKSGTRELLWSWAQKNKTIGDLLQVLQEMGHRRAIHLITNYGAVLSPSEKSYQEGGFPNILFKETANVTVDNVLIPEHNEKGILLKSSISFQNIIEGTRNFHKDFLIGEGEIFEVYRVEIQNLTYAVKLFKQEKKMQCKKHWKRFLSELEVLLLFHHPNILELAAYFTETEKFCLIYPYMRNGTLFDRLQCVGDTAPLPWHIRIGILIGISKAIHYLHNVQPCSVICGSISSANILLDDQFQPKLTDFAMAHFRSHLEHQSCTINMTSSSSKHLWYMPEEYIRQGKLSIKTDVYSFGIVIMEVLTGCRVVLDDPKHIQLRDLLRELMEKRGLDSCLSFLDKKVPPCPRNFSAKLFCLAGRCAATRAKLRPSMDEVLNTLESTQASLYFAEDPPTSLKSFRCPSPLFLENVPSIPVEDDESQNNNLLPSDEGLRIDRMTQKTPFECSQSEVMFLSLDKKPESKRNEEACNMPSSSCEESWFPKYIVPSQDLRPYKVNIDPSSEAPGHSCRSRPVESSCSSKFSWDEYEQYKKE
Put plainly: IRAK endogenous HTRF degradation assay (Total-IRAK3 HTRF kit). It counts as cell-based. Also noted: IRAK Endogenous HTRF Degradation Assay; endogenous in cells. The settings on record: endogenous IRAK3, overnight incubation; % Dmax = 100 − Ymin. On the procedure:
Example B2. IRAK Endogenous HTRF Degradation Assay
Cells (~50k) were plated in Cisbio 96-well low volume white plates (Cisbio: cat #66PL96005). Compounds were dissolved in DMSO and a 3-fold serial dilution was performed using a TECAN D300E. Cells were incubated with the compound overnight. Total-IRAK3 HTRF kit from Cisbio was used for degradation analysis (Cisbio: 63ADK101PEH). Cryptate and D2 antibodies were diluted in Detection buffer as per manufacturers recommendation. Then 2 μL of each solution was added to 16 μL lysate. Buffer control (lysis buffer detection buffer), Cryptate control (lysis buffer+cryptate antibody+detection buffer), and Negative control (lysis buffer+cryptate antibody+D2 antibody) were made as per manufacturers recommendation. Post incubation with antibodies the HTRF signal was measured using a Perkin Elmer Envision reader and the HTRF signal was calculated using formula: (Emission at 665 nm/Emission at 615 nm)*10,000. All HTRF values were normalized to the average value of DMSO. The average value of the DMSO control wells were set to equal 100% of the relative IRAK3 protein levels. Normalized luminescence values were plotted on a graph as a function of compound concentration. Compound concentration was plotted on the x-axis and the corresponding normalized IRAK3 protein levels on the y-axis. The EC50 value (the half-maximum effective concentration) of a compound for the degradation of the IRAK3 was calculated using a four-parameter logistic model (sigmoidal dose-response model) (FIT=(A+{(B−A)/1+[(C/x)D]})) where C is the inflection point (EC50), D is the […], and A and B are the low and high limits of the fit, respectively). The Ymin was calculated by determining the lowest percentage of target protein remaining following compound treatment. Dmax was calculated from Ymin (% Dmax=100−Ymin).
Using these assays, IC50, Dmax, EC50, and DC50 values of the following compounds were determined. Dmax is defined as the maximum percent degradation achieved and DC50 is the concentration at which 50% degradation is achieved.
A general note: In TR-FRET formats the signal depends on donor and acceptor labels being close together.

Test [2] has as its target T2, IRAK3-ePL (Homo sapiens, UniProt Q9Y616).
T2 construct: expressed in transfected cells; host or cells: 293T CRBN OE/GSPT1 G575N KI cells, lentiviral transduction, puromycin selection
Briefly: IRAK3-ePL overexpressing degradation assay. The test is classed as cell-based. To be noted: IRAK3-ePL Lenti-X 293T CRBN/GSPT1 G575N cells, overnight incubation, top dose 10 μM. As to the method:
Example B1. IRAK3-ePL Overexpressing Degradation Assay
Stable cell lines were generated by the following protocol. 3×10^5 Lenti-X 293T cells (Clonetech) were plated in 0.8 mL of media in a 12-well plate and incubated overnight at 37° C./5% CO2. Packaging plasmid (0.4 μg, pMD), envelope plasmid (0.4 μg, pSP), and lentiviral transfer IRAK3-ePL plasmid (0.8 μg, IRAK3 sequence NM_007199.3) were mixed in 0.1 mL of Opti-MEM and incubated for 5 min. Simultaneously, 2.4 μL of Lipofectamine 2000 (Invitrogen) was added to 0.1 mL of Opti-MEM (Gibco) and incubated for 5 min. The plasmid DNA and lipofectamine were combined and the mixture was allowed to incubate for 20 min. DNA:Lipofectamine Opti-MEM mixtures were then added to previously plated cells dropwise and the cells were incubated for ~16 h at 37° C./5% CO2. Following incubation, the media was removed and 1.2 mL of fresh media was added per well. Lenti-X 293T cells were incubated for ~30 h at 37° C./5% CO2. […] Following incubation, media was removed from the Lenti-X 293T wells and passed through a […]. Part of the viral supernatant was used to transduce cells and the rest was stored at −80° C. Viruses were then added individually (0.5 mL virus) to each well of the 293T^CRBN OE/GSPT1 G575N KI cells, followed by addition of polybrene (10 mg/mL Millipore) to each well at a final concentration of 5.0 μg/mL. Cells were incubated for ~24 h at 37° C./5% CO2. After aspirating media off plates, cells were washed with DPBS, trypsinized and plated in a 10 cm dish in 15 mL of media and 1 μg/mL puromycin. Following incubation of cells for ~72 h at 37° C./5% CO2, media was aspirated off plates, and cells were washed with DPBS and trypsinized. The cells were plated in a 15 cm dish in 40 mL of media with 1.0 μg/mL Puromycin (Gibco) and incubated for ~72 h at 37° C./5% CO2. Following incubation, media was removed and cells were washed with DPBS and trypsinized. The majority of cells were resuspended in Invitrogen freezing media and stored away (~6-8×10^6 cells/vial).
IRAK3-ePL cellular dose response curve degradation assays were performed by the following protocol. Compounds to be tested were dispensed into a white 384-well tissue-culture treated plate using an acoustic liquid handler. Dilutions were prepared based on a 25 μL assay volume in duplicate 10 point 3-fold serial dilutions starting with a 10 μM dose. Negative control wells were included, which only contain 0.2% DMSO to calculate 100% signal. Positive control wells containing 30 μM Ataluren (luciferase inhibitor) were included to calculate the background signal level. All wells were backfilled to a final DMSO concentration of 0.2% to ensure DMSO uniformity across wells. IRAK3-ePL expressing cells (IRAK3-ePL Lenti-X 293T^CRBN/GSPT1 G575N) were washed, trypsinized, counted, and resuspended in fresh DMEM (Gibco) to give a cell concentration of 200,000 cells/mL. 25 μL of cells (5,000 cells/well) were dispensed into the wells of the 384-well plate prespotted with compounds in the previous step and incubated overnight at 37° C./5% CO2. Following incubation, the 384-well plate was taken out of the incubator and left at room temperature for 30 min. InCELL hunter reagent was prepared according to manufacturer's instructions (EA reagent, lysis buffer, and substrate reagent in a 1:1:4 ratio, Cat #96-0002, DiscoverX), which was added to the 384-well plate 25 μL per well. Following the incubation of the plate for 1 h at room temperature, the luminescence signal was read using a ViewLux plate reader. Data was processed and analyzed in ActivityBase software. In short, the average luminescence values of the positive control wells were subtracted from the rest of the wells for background correction, and all luminescence values were normalized to the DMSO control wells. The average value of the DMSO control wells was set to equal 100% of the relative IRAK3-ePL protein levels. […]

As to `Cc1ncsc1-c1ccc(CNC(=O)[C@@H]2C[C@@H](O)CN2C(=O)[C@@H](NC(=O)COCCOCCOCCOCCOCCN2CCC(n3cc(-c4cnc(N)c(O[C@H](C)c5c(Cl)ccc(F)c5Cl)c4)cn3)CC2)C(C)(C)C)cc1` [Compound 5, (2S,4R)-1-((S)-20-(4-(4-(6-amino-5-((R)-1-(2,6-dichloro-3-fluorophenyl)ethoxy)pyridin-3-yl)-1H-pyrazol-1-yl)piperidin-1-yl)-2-(tert-butyl)-4-oxo-6,9,12,15,18-pentaoxa-3-azaicosanoyl)-4-hydroxy-N-(4-(4-methylthiazol-5-yl)benzyl)pyrrolidine-2-carboxamide], the Dmax in test [1] turned out to be 34%; in test [2] (HEK-293T, maximum percentage loss of target protein), 23%. Further, in test [2] (read-out: IRAK3 ePL degradation EC50), the DC50 is greater than 10 µM.
